Strand notation (5' to 3'): a small letter for the sugar, then the base; units joined by * are phosphorothioate-linked, units joined directly phosphodiester-linked; [ ] holds rarer units or linkages, { } end groups; capitals alone tell only the bases. e = 2'-O-(2-methoxyethyl) (MOE); k = constrained ethyl (cEt); [5mC] = 5-methylcytosine; d = 2'-deoxy (DNA); m = 2'-O-methyl
Tested on: Yap1 mRNA
Experiment: Antisense inhibition of human Yap1 in SNU-449 cells by modified oligonucleotides, single dose (Example 5, RTS36584)
Type: cell-based
Experimental: Modified oligonucleotides with additional chemistry modifications were designed to target a Yap1 nucleic acid and were tested for their effect on Yap1 mRNA level in SNU-449 cells. The modified oligonucleotides were tested in a series of experiments that had similar culture conditions. Cultured SNU-449 cells at a density of 10,000 cells per well were treated using free uptake with 2,000 nM of modified oligonucleotide. After a treatment period of approximately 48 hours, RNA was isolated from the cells and Yap1 mRNA levels were measured by quantitative real-time RTPCR. Human primer probe set RTS36584 was used to measure mRNA levels. Yap1 mRNA levels were normalized to total RNA content, as measured by RIBOGREEN®. Results are presented in the tables below as percent control of the amount of Yap1 mRNA relative to untreated control cells (% UTC). The modified oligonucleotides with percent control values marked with an asterisk (*) target the amplicon region of the primer probe set. Additional assays may be used to measure the potency and efficacy of the modified oligonucleotides targeting the amplicon region.
Several different chemistry modifications were tested, which are specified in the Chemistry Notation column of the tables below, wherein the notation “d” refers to a 2′-deoxyribose sugar, the notation “s” refers to a phosphorothioate (P═S) internucleoside linkage, the notation “k” refers to a cEt modified sugar, the notation “y” refers to a 2′-O-methyl ribose sugar, the notation “e” refers to a MOE modified sugar, and the notation “^mC” refers to a 5-methylcytosine.
“Start site” indicates the 5′-most nucleoside to which the gapmer is targeted in the human gene sequence. “Stop site” indicates the 3′-most nucleoside to which the gapmer is targeted human gene sequence. […] Activity of the modified oligonucleotide may be defined in a different experiment.

[1] = Table 41, SNU-449 cells, 10,000 cells per well, free uptake, 2,000 nM modified oligonucleotide, approximately 48 hours, RTS36584, normalized to RIBOGREEN, Yap1 mRNA relative to untreated control cells
[2] = Table 45, Yap1 mRNA as percent of untreated control, SNU-449 cells, single dose
[3] = Table 49, Yap1 mRNA level relative to untreated control, modified oligonucleotides targeting SEQ ID NO.: 1 and 2
[4] = Table 50, Yap1 mRNA remaining as percent of untreated control (UT), SNU-449 cells, single dose
[5] = Table 46, Yap1 mRNA as percent of untreated control, SNU-449 cells, single dose
[6] = Yap1 mRNA, percent of untreated control, modified oligonucleotides targeting SEQ ID NO: 1 and 2, Table 47
[7] = Table 43 experiment, SNU-449 cells, 10,000 cells per well, free uptake, 2,000 nM, approximately 48 hours, RTS36584, Yap1 mRNA normalized to RIBOGREEN, relative to untreated control cells
[8] = Table 44 experiment, SNU-449 cells, 10,000 cells per well, free uptake, 2,000 nM, approximately 48 hours, RTS36584, Yap1 mRNA normalized to RIBOGREEN, relative to untreated control cells
[9] = Table 48, Yap1 mRNA level relative to untreated control, modified oligonucleotides targeting SEQ ID NO.: 1 and 2

1198779 (antisense kA*eA*kT*dA*dT*dT*dG*d[5mC]*dA*dA*dT*d[5mC]*eT*eG*kT*k[5mC]) [Compound 1198779]
YAP1 (% UTC) (Table 40 (separate experiment), SNU-449 cells, 10,000 cells per well, free uptake, 2,000 nM oligonucleotide, approx. 48 hours, RTS36584, normalized to RIBOGREEN, Yap1 mRNA relative to untreated control): 49 % UTC

1198659 (antisense kT*kT*dA*dA*dG*d[5mC]*dA*d[5mC]*dT*dT*dT*dT*kA*e[5mC]*kA*eT) [Compound 1198659]
YAP1 (% UTC) [1]: 58 % UTC

1198943 (kT*k[5mC]*dT*dT*dA*dT*dA*dT*dG*dG*dT*kT*dT*kT*dG*kT; antisense) [Compound 1198943]
YAP1 (% UTC) [2]: 31 % UTC

1198739 (k[5mC]*eA*k[5mC]*dT*dG*dA*dG*dG*dT*dA*dT*dA*eA*e[5mC]*kT*kG; antisense) [Compound 1198739]
YAP1 (% UTC) [1]: 94 % UTC

1198339 (kA*k[5mC]*kT*d[5mC]*dT*dT*dA*dT*dA*dT*dG*dG*kT*eT*kT*eT; antisense) [Compound 1198339]
YAP1 (% UT) [3]: 25 % UT

1197259 (kA*kT*kA*dT*mG*dG*dT*dT*dT*dT*dG*dT*dG*kT*kG*kT) [Compound 1197259]
YAP1 (% UT) (Table 51, Yap1 mRNA remaining as percent of untreated control (UT), SNU-449 cells, single dose): 59 % UT

1198618 (antisense kA*kA*k[5mC]*dT*dT*dT*dA*dA*dA*dG*dT*dG*kT*kA*kT*eG) [Compound 1198618]
YAP1 (% UT) [4]: 74 % UT

1198843 (kA*kG*dT*dG*d[5mC]*dT*dT*dT*dG*dG*dA*kA*eG*kA*eT*k[5mC]; antisense) [Compound 1198843]
YAP1 (% UT) [5]: 45 % UT

1095435 (antisense kA*k[5mC]*kT*dG*dA*dG*dG*dT*dA*dT*dA*dA*k[5mC]*kT*kG*eG) [Compound 1095435]
YAP1 (% UT) [4]: 39 % UT

1198359 (k[5mC]*kT*kT*dT*dA*dA*dA*dG*dT*dG*dT*dA*kT*eG*kT*e[5mC]; antisense) [Compound 1198359]
YAP1 (% UT) [3]: 28 % UT

1009325 (kA*kG*kA*dG*dT*dA*dT*dG*dT*dG*dG*d[5mC]*dA*kA*kT*kA; antisense) [Compound 1009325]
YAP1 (% UT) [6]: 16 % UT

1198410 (kA*dT*dA*dG*dT*dG*d[5mC]*dT*dT*dT*dG*kG*eA*kA*eG*kA; antisense) [Compound 1198410]
YAP1 (% UTC) (Table 39, SNU-449 cells, 10,000 cells per well, free uptake, 2,000 nM oligonucleotide, approx. 48 hours, RTS36584, normalized to RIBOGREEN, Yap1 mRNA relative to untreated control): 48 % UTC

1198368 (kA*kG*kA*d[5mC]*dT*dA*dA*dG*dT*dA*dA*dG*kG*eT*kT*eT; antisense) [Compound 1198368]
YAP1 (% UT) [3]: 79 % UT

1198816 (antisense kT*kT*dA*dG*dA*dG*dT*dA*dT*dG*dT*kG*eG*k[5mC]*eA*kA) [Compound 1198816]
YAP1 (% UT) [5]: 27 % UT

1198243 (kG*kA*dT*dT*dT*dA*dG*dG*dA*dT*dG*e[5mC]*eA*eT*kG*kG; antisense) [Compound 1198243]
YAP1 (% UTC) [7]: 8 % UTC

1198269 (kA*kA*dA*dG*dT*dG*dT*dA*dT*dG*dT*e[5mC]*eA*eG*kA*kA; antisense) [Compound 1198269]
YAP1 (% UTC) [7]: 58 % UTC

1198517 (kA*kA*dT*dA*dT*dT*dG*d[5mC]*dA*dA*dT*e[5mC]*kT*eG*kT*e[5mC]; antisense) [Compound 1198517]
YAP1 (% UTC) [8]: 36 % UTC

1197195 (antisense kT*kT*kT*dA*dG*dG*dA*dT*dG*d[5mC]*dA*dT*dG*kG*kT*kT) [Compound 1197195]
YAP1 (% UT) [6]: 38 % UT

1198294 (kA*kG*kA*dG*dT*dA*dT*dG*dT*dG*dG*d[5mC]*kA*eA*kT*eA; antisense) [Compound 1198294]
YAP1 (% UT) [9]: 13 % UT

1198891 (kA*kT*dT*dG*dT*d[5mC]*dT*d[5mC]*dA*dT*dG*k[5mC]*d[5mC]*kT*dT*kA) [Compound 1198891]
YAP1 (% UTC) [8]: 18 % UTC

1009397 (kA*kA*k[5mC]*dA*d[5mC]*dT*dG*dA*dG*dG*dT*dA*dT*kA*kA*k[5mC]; antisense) [Compound 1009397]
YAP1 (% UT) [9]: 44 % UT

1198953 (kG*kT*dA*dA*dT*dA*dT*dT*dG*d[5mC]*dA*kA*dT*k[5mC]*dT*kG; antisense) [Compound 1198953]
YAP1 (% UTC) [2]: 58 % UTC

1198645 (kT*k[5mC]*dT*dA*dT*dA*dT*dT*dA*dG*dA*dG*kT*eA*kT*eG; antisense) [Compound 1198645]
YAP1 (% UTC) [1]: 73 % UTC
